Source: ChEMBL document CHEMBL5131428, “Discovery of potent antiproliferative agents from selected oxygen heterocycles as EGFR tyrosine kinase inhibitors from the U.S. National Cancer Institute database by in silico screening and bioactivity evaluation” (Bioorg Med Chem Lett, 2022)

Legend:
A-431 [1] = experiment: Antiproliferative activity against human A-431 cells overexpressing EGFR assessed as cell survival at 10 uM relative to control; type: functional; details: read-out: Survival
[2] = target: T1, Epidermal growth factor receptor (Homo sapiens, UniProt P00533); experiment: Inhibition of EGFR tyrosine kinase (unknown origin) preincubated for 5 mins followed by substrate addition and further incubated for 10 mins in presence of ATP by fluorescence based microplate reader analysis
A-431 [3] = experiment: Antiproliferative activity against human A-431 cells overexpressing EGFR assessed as cell growth inhibition by MTT assay; type: functional, cell-based
HeLa = experiment: Antiproliferative activity against human HeLa cells assessed as cell growth inhibition by MTT assay; type: functional, cell-based
[4] = target: T1, Epidermal growth factor receptor; experiment: Inhibition of EGFR tyrosine kinase (unknown origin)

T1 sequence (P00533 whole entry): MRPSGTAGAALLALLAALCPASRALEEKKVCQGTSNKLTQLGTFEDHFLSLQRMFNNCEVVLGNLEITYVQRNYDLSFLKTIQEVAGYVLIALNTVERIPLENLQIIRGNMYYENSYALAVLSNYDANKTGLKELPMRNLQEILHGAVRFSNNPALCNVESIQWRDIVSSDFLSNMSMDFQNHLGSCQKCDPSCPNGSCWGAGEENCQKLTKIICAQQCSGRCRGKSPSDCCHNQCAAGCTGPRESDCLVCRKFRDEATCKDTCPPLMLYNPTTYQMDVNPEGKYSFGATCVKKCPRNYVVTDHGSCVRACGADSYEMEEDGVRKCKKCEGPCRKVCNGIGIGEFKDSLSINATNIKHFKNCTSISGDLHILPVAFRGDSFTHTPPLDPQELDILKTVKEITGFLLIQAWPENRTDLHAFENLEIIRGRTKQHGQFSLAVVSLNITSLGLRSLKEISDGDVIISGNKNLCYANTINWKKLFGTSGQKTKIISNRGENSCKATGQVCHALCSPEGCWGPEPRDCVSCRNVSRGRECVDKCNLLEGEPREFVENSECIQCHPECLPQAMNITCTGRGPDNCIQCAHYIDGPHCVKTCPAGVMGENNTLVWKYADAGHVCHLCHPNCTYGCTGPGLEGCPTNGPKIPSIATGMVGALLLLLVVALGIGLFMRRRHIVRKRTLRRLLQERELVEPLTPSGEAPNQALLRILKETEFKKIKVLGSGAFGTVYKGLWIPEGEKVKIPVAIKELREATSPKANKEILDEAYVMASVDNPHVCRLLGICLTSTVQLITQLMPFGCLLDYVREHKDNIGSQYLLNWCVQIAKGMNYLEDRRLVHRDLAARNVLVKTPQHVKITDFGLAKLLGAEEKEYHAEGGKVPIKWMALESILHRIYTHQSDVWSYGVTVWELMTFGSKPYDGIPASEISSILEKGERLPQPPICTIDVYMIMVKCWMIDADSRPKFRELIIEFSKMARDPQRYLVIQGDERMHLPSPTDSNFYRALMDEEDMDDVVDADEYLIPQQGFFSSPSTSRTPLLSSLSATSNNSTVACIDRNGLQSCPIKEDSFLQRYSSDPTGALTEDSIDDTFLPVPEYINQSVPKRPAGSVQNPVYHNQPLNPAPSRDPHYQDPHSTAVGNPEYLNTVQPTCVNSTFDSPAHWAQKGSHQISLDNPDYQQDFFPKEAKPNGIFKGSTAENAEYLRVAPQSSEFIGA

IC50 [2] [µM]	SMILES	viability at 10 µM (A-431 [1]) [%]	IC50 (A-431 [3]) [µM]	IC50 (HeLa) [µM]	IC50 [4] [µM]
	Cc1c2cc(O)c(=O)cc-2oc2cc(O)c(O)cc12	57			
0.9	O=c1c2cccc(O)c2oc2cccc(O)c12				
	COC1=CC(=C(c2ccc(O)c(OC)c2)c2ccc(O)c(OC)c2)C=CC1=O	57			
	COc1cccc2c1C(=O)C1=C(C2=O)c2c(O)cc(CO)cc2[C@@H](O)[C@@H]1O	< 6	6.04	1.74	0.00654
	CCc1ccc(C2=C(O)C(=O)C(c3ccc(CC)cc3)=C(O)C2=O)cc1	17	17.7	17.3	0.0302
	COc1ccc(-c2cc(=O)cc(-c3ccc(OC)cc3)o2)cc1	< 6	3.81	8.12	0.00015
	O=c1c2ccccc2oc2cc([C@H](O)c3ccccc3)ccc12	57			
	O=C1c2ccccc2C(=O)c2c(O)c3c(c(O)c21)CCCC3	57			
	C=CC(C)(C)c1c2c(c(O)c3c(=O)c4ccc(O)c(O)c4oc13)C=CC(C)(C)O2 [MACLURAXANTHONE]	49	2.84	0.95	
	COc1c(O)cc2oc3cc(O)c(CC=C(C)C)c(O)c3c(=O)c2c1CC=C(C)C [MANGOSTIN]	< 6	7.2	12	
